{"source": "paper PMC7395176", "about": "“Retromer stabilization results in neuroprotection in a model of Amyotrophic Lateral Sclerosis” (Nature Communications, 2020)", "key": {"[1]": {"assay": "Brain uptake of compound 2a by LC-MS/MS in C57BL/6J mice", "type": "in vivo", "conditions": "C57BL6J mice, daily intraperitoneal injections 10 mg/kg; 1, 7, 15, 30 days", "procedure": "Compounds 2a, 4a, and standard R55/1 (10 mg/Kg) were intraperitoneally injected in C57BL6J mice daily. After 1 week, mice were sacrificed, saline perfused to avoid CNS contamination by compounds in blood circulation, and SC protein extracts were assayed by WB. […] Therefore, phenyl-1,3-bis-guanylhydrazone 2a was selected as an early lead.\nQuantification of compound 2a in CNS extracts of C57BL/6J mice was performed at ProMeFa facility (Proteomics and Metabolomics Facility) of San Raffaele Scientific Institute. Wild-type C57BL/6J males mice (P60) were intraperitoneally injected with compound 2a (10 mg/kg) or vehicle, daily. We sacrificed mice at the following time points: 1, 7, 15, and 30 days. Before brains collection, mice received saline perfusion. Brains were weighted (~350 mg each) and rapidly frozen at −80 °C. The extraction was performed with methanol and each biological sample was resuspended in 60 µl of LC/MS grade water and 5 µL were analyzed by LC-MS/MS using the UPLC 1290 (Agilent Technologies) coupled to the TripleTOF 5600+ mass spectrometer (SCIEX). […] Calibration curve in brain was constructed by plotting the peak area versus corresponding quantities of compound 2a (0; 0.1; 0.26; 1 nmol, run in quadruplicates, R2 = 0.9443), using MultiQuant 2.1 software (SCIEX)."}, "[2]": {"test_system": "poly-ubiquitinated proteins", "assay": "Poly-ubiquitinated proteins in lumbar SC and MNs of treated G93A mice", "type": "in vivo", "conditions": "10 mg/kg, day 100", "from_the_text": "Ubiquitinated inclusions accumulate in MNs from sALS and fALS patients, and in ALS mice[51]. We characterized poly-ubiquitinated proteins in lumbar SCs protein extracts by 10% denaturating PAGE. Protein extracts from Neuro2a cells treated with the proteasome inhibitor Bortezomib (BTZ), able to increase poly-ubiquitination, were used as an experimental control[52] (Fig. 7a). […] We next scored ubiquitin MFI levels in ventral horn MNs of G93A mice. […] (Fig. 7c and d). We next scored the Golgi apparatus in G93A mice by labeling lumbar sections for the cis-Golgi matrix protein GM130[54]. […] (Fig. 7e).\nFluorescence intensity levels of VPS35, VPS26, CI-MPR, Sortilin, CTSD and Ubiquitin were calculated using NHI-Image J software (US National Institutes of Health) according to the following protocol: stacks of confocal images were used to generate the maximal projections using the Leica Application Suite X (2.0.0.14332) software and then postprocessed by NHI-Image J to crop single NeuN^+ MNs from the ventral horn of the spinal cord. We next performed background (calculated on adjacent slices only receiving secondary antibodies) subtraction for each channel, before applying the NHI-Image J mean filter (with radius 2.0 pixels) to calculate mean NeuN fluorescence levels in individual MNs. […] On this ROI, we measured mean fluoresce levels (MFI) of target proteins."}, "[3]": {"test_system": "SOD1^G93A-transfected Neuro2a cells", "assay": "Cell viability of SOD1G93A-transfected Neuro2a cells (colorimetric assay)", "type": "cell-based", "conditions": "10 µM", "from_the_text": "The Golgi apparatus is affected in MNs from ALS patients and in cells overexpressing mutant SOD1 forms[35]–[37]. We transiently transfected Neuro2a cells with plasmids encoding SOD1^G93A before treatment with compound 2a. […] We next determined the viability of Neuro2a cells transfected with SOD1^G93A and exposed to compound 2a using a colorimetric assay. Controls cells received LacZ plasmids. […] We observed a slight, but not significant, reduction of cell viability in […] Neuro2a cells (Fig. 3b). […] The increased cell viability provided by compound 2a could result from unknown, nonspecific off-target effects. Therefore, we used plasmids encoding VPS35 to increase/stabilize the retromer complex. […] However, this phenotype was reverted co-transfecting VPS35 and SOD1^G93A plasmids (Fig. 3c).\nHaving observed a marked improvement of viability in SOD1^G93A-transfected Neuro2a cells with VPS35 gain of function, we investigated the effect of VPS35 loss of function. We transfected Neuro2a cells with RNAi plasmids encoding a siRNA duplex for VPS35, to knockdown VPS35 and disrupt the retromer assembly. […] By including Sh56 plasmids in the transfection mix, we worsened this phenotype (Fig. 3d). […] We next assayed cytotoxicity by measuring lactate dehydrogenase (LDH) release with a LDH-Glo™ cytotoxicity assay. […]"}}, "data": [{"smiles": "NC(N)=N/N=C/c1cccc(/C=N/N=C(N)N)c1", "note": "[compound 2a, phenyl-1,3-bis-guanylhydrazone]", "values": [{"measurement": "access to the CNS (brain uptake)", "setting": "[1]", "value": "confirmed its access to the CNS"}, {"measurement": "poly-ubiquitinated proteins in lumbar SC extracts (WB)", "setting": "[2]", "value": "substantially reduced"}, {"measurement": "ubiquitin MFI levels in ventral horn MNs", "setting": "[2]", "value": "vehicle-treated G93A MNs were higher than in compound 2a-treated G93A mice"}, {"measurement": "cell viability", "setting": "[3]", "value": "cell viability was restored"}]}]}
